Non-standard residues stand in square brackets, D forms with d. No end group written: not given here.
Key:
EphB4 and Crk1 (MAPK14) = assay: EphB4 and Crk1 phosphorylation in A2780cp20 cells (IP/immunoblot); type: cell-based, human; conditions: 50 nM (BIDEN-AP equivalent), 24 h after 16 h serum-free (Fig. S7A)
Text: Next, we determined the phosphorylation of EphB4 and its downstream adaptor protein Crk1 (MAPK14) in lysates from human A2780cp20 ovarian cancer cells by immunoprecipitation with anti-EphB4 and anti-Crk1 antibodies followed by immunoblotting with phospho-specific antibodies. […] In comparison, Alexa647-labeled antagonist TNYL-RAW was excluded.
Figure 2 BIDEN-AP acts as an EphB4 agonist. (A) BIDEN-AP induced phosphorylation of EphB4 and the associated MAPK14 (Crk1). […] The uncropped blots are presented in Supplemental Figure 11. (B) BIDEN-AP inhibited A2780cp20 cell invasion compared to untreated controls (CTL). A modified Boyden transwell chamber coated with Matrigel was used. Representative data from three independent experiments using A2780cp20 cells are presented. Each experiment was repeated in triplicate. Data are shown as mean ± SD. ***p < 0.001 by unpaired, two-sided Student t-test. […]
calculated as Koff/Kon. […]
The capacity of BIDEN-AP to inhibit the binding of EFNB2 to EphB4 was assessed in a competitive binding assay. […] After each injection, the signal from the control flow cell was subtracted and the relative amount of EphB4 bound to EFNB2-Fc was recorded as the net response over the pre-injection baseline level. […]
The protein concentrations were determined by using a BCA Protein Assay Reagent kit (Pierce Biotechnology, Rockford, IL). […]

RF24_Bev cells = assay: Cell death in bevacizumab-resistant RF24 cells (SYTOX-green flow cytometry); type: cell-based; conditions: VEGF + Bev, SYTOX-negative live cells by flow cytometry (Fig. 4C,D)
Protocol: Figure 4 BIDEN-AP–based agents inhibit tube formation and sensitize resistant endothelial cells to anti-VEGF antibody. (A,B) Tube formation by RF24 cells treated with EFNB2-Fc (2 nM) or BIDEN-AP (15 µM) compared to untreated controls (CTL). Representative data from three independent experiments are presented. (A) Representative microphotographs of tubes formed by RF24 cells are shown (n = 3). Images were taken at × 100 magnification. (B) Quantification of the number of nodes per field in three technical replicates. […] (C) Representative flow cytometry plots from three independent experiments of RF24_Bev cells are shown here. SYTOX-negative staining represents the live cell population.
Given the important role of endothelium in adaptive changes with antiangiogenic therapy, we further tested the effects of BIDEN-AP in overcoming resistance to anti-VEGF therapy in RF24 endothelial cells. To do this, we first established a bevacizumab (Bev)-resistant RF24 cell line (RF24_Bev) selected though continuous Bev treatment at low dose ([…]) for 2 weeks. The RF24_Bev cells were maintained at a Bev concentration of […]. Using flow cytometry with SYTOX-green staining, we quantified the live (SYTOX-negative) vs. dead (SYTOX-positive) populations after treatment with BIDEN-AP or CCPM-BIDEN-AP.

[1] = test system: orthotopic A2780cp20-Luc ovarian tumors; assay: Orthotopic A2780cp20-Luc ovarian cancer model
Protocol: (A) Schema for in vivo orthotopic A2789cp20-Luc model and treatment. Female nude mice were intraperitoneally inoculated with A2789cp20-Luc tumor cells. Beginning on day 7 after inoculation, each mouse received 10 intraperitoneal injections of BIDEN-AP or CCPM-BIDEN-AP (bold arrows) at a dose 13 mg/kg/injection every other day for a total of 10 doses. Tumor growth was monitored by bioluminescence imaging (IVIS). (B,C) Representative bioluminescence images on day 28 after tumor cell inoculation (B) and corresponding quantification of signal intensity (C) of mice bearing orthotopic A2780cp20-Luc tumors (n = 4). (D,E) Tumor weight (D) and number of tumor nodules (E) per treatment group (n = 8). (F) Images of tumor nodules from each treatment group. Data are expressed as mean ± SD. *p < 0.05, **p < 0.01, ****p < 0.0001 by Student t-test. CTL, untreated controls.
Female athymic nude mice (NCr-nu) were obtained from Harlan Laboratories (Indianapolis, IN) at age 4 to 6 weeks and kept under sterile conditions. For all therapeutic experiments, groups of the mice were inoculated intraperitoneally with A2780cp20-Luc cells (1×10^6 cells/mouse). The mice were treated with BIDEN-AP or CCPM-BIDEN-AP at a dose of 13 mg equivalent drug/kg per injection for a total of 10 doses every other day starting on day 7 after tumor cell inoculation. Untreated mice were used as a control. On day 31, all mice were euthanized and necropsied, and their tumors were harvested. Tumor weight and number and location of tumor nodules were recorded. Tumor tissue was fixed in formalin for paraffin embedding, frozen in optimal cutting temperature medium for frozen slide preparation, or snap-frozen for lysate preparation.
On day 7, day 14, day 21, and day 28 after tumor inoculation, mice received a tail vein injection of D-luciferin (4 mg/kg) and their tumor burden was assessed by luciferase activity using the Xenogen IVIS-200 imaging system (Perkin Elmer, Shelton, CT). The bioluminescence imaging signal generated in mice was quantified using Living Image V.2.11 software and IGOR image analysis software (V.4.02 A; WaveMetrics, Portland, OR). The region of interest was manually selected, and the signal intensity was expressed in terms of the number of photons/s/cm^2.
incubated overnight at 4°C. After washing, the slides were incubated with Alexa488-conjugated goat anti-rabbit secondary antibody for 60 min. Slides were subjected to recombinant terminal
deoxynucleotidyl transferase (rTdT)–mediated dUTP nick-end labeling (TUNEL) by using the
DeadEnd Fluorometric TUNEL System assay kit (Promega) after CD31 staining by immersing
slides in 4% formaldehyde in PBS for 15 min. A 20 µg/mL proteinase K solution (Promega) was
added to each slide (100 µL per slide), and the slides were incubated at room temperature for 8-
10 min. Slides were washed twice with PBS, 100 µL equilibration buffer (Promega) was added to
each, and the slides were again incubated for 5-10 min. The slides were then labeled by adding
50 µL of fluorescein-12-dUTP as a substrate, and the rTdT was added. Each slide was covered
with a plastic coverslip to ensure even distribution of the labeling solution and incubated for 60
min at 37°C in a humidified chamber. The reaction was stopped by immersing slides in 2x SSC
solution (87.7g NaCl, 44.1g sodium citrate, pH 7.0, in 500 mL) for 15 min. After washing with PBS,

With “CCPM-BIDEN-AP: nanoconjugate of BIDEN-AP with core-crosslinked polymeric micelles (CCPM) (TN[dY]LFSPNGPIARAW; also: conjugated to core-crosslinked polymeric micelles (CCPM))” the “EphB4 and Crk1 phosphorylation in vitro (agonist activity)” value (EphB4 and Crk1 (MAPK14)) was “potent agonist activity”, the “re-sensitization of bevacizumab-resistant endothelial cells to Bev” value (RF24_Bev cells) was “re-sensitized these cells to Bev treatment” and the “bioluminescence signal intensity of tumors” value ([1]; day 28 after inoculation, 13 mg/kg/injection i.p. every other day, 10 doses from day 7, n = 4 (Fig. 5A-C)) was “significantly reduced the bioluminescence signal intensity”. For the same substance, the “metastatic nodules, comparison of the two agents” value ([1]; day 31, 13 mg/kg/injection i.p., 10 doses (Fig. 5E,F)) was “reduced metastatic nodules to a greater extent than BIDEN-AP”, the “tumor growth in the peritoneum (tumor weight and number of metastatic nodules) versus controls” value ([1]; day 31 after inoculation, 13 mg/kg/injection i.p., 10 doses, n = 8 (Fig. 5D)) was “significantly reduced tumor growth in the peritoneum” and the “apoptotic cell death in CD31+ endothelial vasculature within tumor stroma” value ([1]; excised A2780cp20 tumors, CD31/TUNEL co-staining, versus untreated control (Fig. 6A-C)) was “induced apoptotic cell death”. For the same substance, the “angiogenesis in tumors (microvessel density)” value ([1]; excised A2780cp20 tumors, CD31 staining (Fig. 6A-C)) was “suppressed angiogenesis in tumors”, the “tumor cell proliferation (Ki67-positive cells)” value ([1]; excised A2780cp20 tumors, Ki67 IHC (Fig. 6D,E)) was “significantly reduced tumor cell proliferation” and the “EphB4 and Crk1 phosphorylation in vivo in tumors” value ([1]; orthotopic A2780cp20 tumors of treated mice, IP/immunoblot (Fig. S7B)) was “induce EphB4 and Crk1 phosphorylation”.

Source: paper PMC6965176, “Targeting Forward and Reverse EphB4/EFNB2 Signaling by a Peptide with Dual Functions” (Scientific Reports, 2020)
